Source: patent publication US10905683B2, “Compositions and uses of amidine derivatives” (BIOCRYST PHARMACEUTICALS, INC., priority 2014, dated 2021)
Values joined by “and” are separate entries in the source; they are usually repeats but may differ in a detail not shown here. Equal entries are not always repeated.

Tests used:
[1] = pH-solubility curve in citrate-phosphate buffers; type: physicochemical; details: free base, FIG. 1
Text: A pH-solubility curve was generated for the compound of Example 1 in citrate-phosphate buffers to evaluate the effect of pH on solubility of the free base material.

[2] = Solubility with cyclodextrins and co-agents; type: physicochemical; details: for solubility: aqueous with cosolvent or surfactant or cyclodextrin, thermodynamic from solid
Description: Additional solubility studies were undertaken using cyclodextrins, including α-cyclodextrin and a polyanionic β-cyclodextrin derivative with a sodium sulfonate salt separated from the lipophilic cavity by a butyl ether or sulfobutylether spacer group) (referred to herein as Captisol) in combination with a variety of co-agents.
Test samples were prepared with the indicated cyclodextrins and the compound of Example 1, both with and without additional agents. The test solutions were sonicated in a Fisher model 55 dismembrator (small probe) at its maximum setting of 5 for 90 seconds. The samples were rotated overnight at room temperature to allow equilibration. Quantitation was performed by comparison of the concentrations of the resulting solution of the compound 1 to a single point calibration curve using a solution of the reference standard.

[3] = Caco-2 bi-directional permeability, absence and presence of P-gp inhibitor verapamil; type: in vitro ADME; details: human; Caco-2, P-gp inhibitor absent
Description: (§1) The Caco-2 bi-directional permeability of the compound of Example 1 was evaluated in the absence and presence of a known P-gp inhibitor, verapamil.

Caco-2 = experiment: as above; type: in vitro ADME
Description: as §1

[4] = Solubility in surfactant solutions; type: physicochemical
Description: The solubility of the compound of Example 1 in a range of surfactants was measured. Solubility assays were performed by the sequential addition of the compound of Example 1 to an appropriate organic solvent while stirring vigorously until a precipitate is formed. The resulting suspension is then shaken for 24 hours at room temperature, filtered and the resulting solution was analyzed by appropriate analytical method. Quantitation was performed by comparison of the concentrations of the resulting solution of the compound of Example 1 to a single point calibration curve using a solution of the reference standard.

plasma kallikrein = target: T1, plasma kallikrein (Homo sapiens, UniProt P03952); experiment: Plasma kallikrein activity in subject samples, contact activation assay with fluorogenic substrate; type: in vivo
T1 construct: normal levels of C1INH present in healthy subject plasma samples; from tissue; host or cells: plasma samples of healthy human subjects
T1 sequence (P03952 391-638 limits assumed): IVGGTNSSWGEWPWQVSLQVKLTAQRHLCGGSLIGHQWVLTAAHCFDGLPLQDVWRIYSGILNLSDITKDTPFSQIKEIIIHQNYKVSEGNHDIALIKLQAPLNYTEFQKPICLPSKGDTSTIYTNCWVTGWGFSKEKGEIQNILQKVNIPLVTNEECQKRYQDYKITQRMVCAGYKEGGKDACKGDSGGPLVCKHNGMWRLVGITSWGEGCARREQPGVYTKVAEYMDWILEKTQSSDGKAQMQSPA
T1 sequence (P03952 20-390 partner limits assumed): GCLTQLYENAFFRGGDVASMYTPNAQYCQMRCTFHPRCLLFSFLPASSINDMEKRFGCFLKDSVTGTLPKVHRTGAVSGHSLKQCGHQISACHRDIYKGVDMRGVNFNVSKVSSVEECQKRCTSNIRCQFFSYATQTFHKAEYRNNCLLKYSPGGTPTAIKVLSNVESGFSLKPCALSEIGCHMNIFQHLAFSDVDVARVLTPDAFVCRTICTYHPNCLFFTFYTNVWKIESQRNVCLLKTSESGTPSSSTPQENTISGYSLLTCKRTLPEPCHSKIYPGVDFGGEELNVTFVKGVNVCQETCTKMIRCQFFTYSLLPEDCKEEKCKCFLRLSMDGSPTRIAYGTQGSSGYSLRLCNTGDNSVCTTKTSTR
Description: Plasma kallikrein activity was assessed in subject samples with an exploratory contact activation assay using a fluorogenic artificial substrate for kallikrein. In this assay, the contact pathway is activated by addition of ellagic acid, and amidolytic activity is measured. Results are expressed as percent inhibition compared to subject baseline samples and reflect inhibition additional to that resulting from the activity of normal levels of C1INH present in healthy subject plasma samples. Analysis of plasma kallikrein activity following single doses of the compound of Example 1 was performed through 12 hours postdose. […] The time course of inhibition generally followed the plasma pharmacokinetics of the compound. The greatest effect was seen around the time of Cmax. Plasma kallikrein inhibition largely returned to baseline at 12 hours postdose, when plasma concentrations of the compound of Example 1 were low (generally <10 ng/mL).
Plasma kallikrein activity profiles were measured in Part 2 subjects on day 7 of dosing and the results were expressed as percent inhibition compared to the activity present in the Day 1 predose plasma sample. […] Kallikrein inhibition was observed through the last dosing interval on day 7 compared to placebo (p<0.0001).

[5] = Relative bioavailability crossover study, soft v. hard gelatin capsules and food effect; type: in vivo, human
Description: A single dose, randomized, 3-period crossover study was conducted to evaluate the relative bioavailability of the compound of Example 1 formulated as a soft gelatin capsule to the compound of Example 1 formulated as a hard gelatin capsule and to determine the effect of food on the pharmacokinetics of the compound of Example 1. The goals of this study were to ascertain the relative bioavailability and pharmacokinetics of the compound of Example 1 in soft gelatin capsules to hard gelatin capsules when administered following an overnight fast in healthy subjects. In addition, the study estimated the effect of a high-fat meal upon the pharmacokinetics of the compound of Example 1 following single dose administration of 400 mg of the compound of Example 1 in a soft gelatin capsules to healthy subjects. Hard and soft gelatin capsules were prepared as in Example 8 and 9, respectively, below.
The study was a single-dose, open-label, randomized, 3-way cross-over design. During each treatment period, eighteen subjects will receive a single dose of one of the following treatments in a randomized sequence:
Treatment A: BCX4161 400 mg as 4×100 mg hard gelatin capsules following an overnight fast
Treatment B: BCX4161 400 mg as 4×100 mg soft gelatin capsules following an overnight fast
Treatment C: BCX4161 400 mg as 4×100 mg soft gelatin capsules following a high fat meal […]

C=Cc1cc(C(=O)Nc2ccc(C(=N)N)cc2)c(-c2ccc(C(=O)NCC3CC3)nc2C(=O)O)cc1OC [Example 1, 3-[2-(4-carbamimidoyl-phenylcarbamoyl)-5-methoxy-4-vinyl-phenyl]-6-(cyclopropylmethyl-carbamoyl)-pyridine-2-carboxylic acid]
effect of pH on aqueous solubility [1]: not a significant effect
solubility ([2]; Captisol 150 mM with DMSO 10%, Captisol 150 mM, DMSO 10%): 3980 µg/mL
solubility ([2]; Captisol 150 mM with ethanol 10%, Captisol 150 mM, Ethanol 10%): 3550 µg/mL
solubility ([2]; Captisol 150 mM with propylene glycol 10%, Captisol 150 mM, Propylene glycol 10%): 3300 µg/mL
solubility ([2]; Captisol 150 mM with sodium dodecyl sulphate 100 mg, Captisol 150 mM, Sodium dodecyl sulphate 100 mg): 240 µg/mL
solubility ([2]; Captisol (sulfobutylether β-cyclodextrin) solution, Captisol 150 mM, no co-solvent): 7610 µg/mL
solubility ([2]; Captisol solution with co-agent, Captisol 150 mM, HPMC E-5 0.25%): 4160 µg/mL
solubility ([2]; Captisol solution with co-agent, Captisol 150 mM, Polyethylene glycol 400 10%): 5460 µg/mL
solubility in cyclodextrins ([2]; with and without co-agents): not soluble in cyclodextrins
solubility ([2]; α-cyclodextrin 150 mM with DMSO 10%, α-cyclodextrin 150 mM, DMSO 10%): 11100 µg/mL
solubility ([2]; α-cyclodextrin 150 mM with ethanol 10%, α-cyclodextrin 150 mM, Ethanol 10%): 270 µg/mL
solubility ([2]; α-cyclodextrin 150 mM with propylene glycol 10%, α-cyclodextrin 150 mM, Propylene glycol 10%): 4980 µg/mL
solubility ([2]; α-cyclodextrin solution with co-agent, α-cyclodextrin 150 mM, HPMC E-5 0.25%): 9950 µg/mL
solubility ([2]; α-cyclodextrin solution with co-agent, α-cyclodextrin 150 mM, Polyethylene glycol 400 10%): 5000 µg/mL
solubility ([2]; α-cyclodextrin solution with co-agent, α-cyclodextrin 150 mM, Sodium dodecyl sulphate 100 mg): 10000 µg/mL
solubility ([2]; α-cyclodextrin solution, α-cyclodextrin 150 mM, no co-solvent): 10000 µg/mL
Papp A→B [3]: 0.5 ×10⁻⁶ cm/s
Papp B→A [3]: 0.5 ×10⁻⁶ cm/s
efflux ratio [3]: 0.9
permeability class (Caco-2; Caco-2 bi-directional): low permeability compound
P-gp substrate (Caco-2; Caco-2 with and without verapamil): does not appear to be a substrate of P-gp
Saturated concentration of Example 1 ([4]; 3-[(3-Chloamidopropyl)-dimethylamino]-1-propanesulfate 1%): 0.66 mg/mL
Saturated concentration of Example 1 ([4]; D-alpha-tocopheryl-polyethylene glycol 1000 succinate 12.3% (in PEG 400)): 7.8 mg/mL
Saturated concentration of Example 1 ([4]; D-alpha-tocopheryl-polyethylene glycol 1000 succinate 20% (in PEG 400)): 20.8 mg/mL
Saturated concentration of Example 1 ([4]; Lecithin 2% (in water)): 1.2 mg/mL
Saturated concentration of Example 1 ([4]; Lecithin 4% (in PEG 400)): 3.3 mg/mL
Saturated concentration of Example 1 ([4]; Lecithin 4% (in water)): 2.2 mg/mL
Saturated concentration of Example 1 ([4]; Lecithin 10% (in PEG 400)): 10.6 mg/mL
Saturated concentration of Example 1 ([4]; Lecithin 10% (in water)): 3.1 mg/mL
Saturated concentration of Example 1 ([4]; Octadecyl amine 1% (in PEG 400)): 7.8 mg/mL and 7.1 mg/mL
Saturated concentration of Example 1 ([4]; Palmitoyl-carnitine chloride 0.10% (in water)): 0.3 mg/mL
Saturated concentration of Example 1 ([4]; dioctyl sodium sulfosuccinate 1% in PEG400): 1.72 mg/mL
Saturated concentration of Example 1 ([4]; sodium lauryl sulphate 1% (in water)): 2.4 mg/mL
Saturated concentration of Example 1 ([4]; sodium lauryl sulphate 2% (in water)): 4.7 mg/mL
Saturated concentration of Example 1 ([4]; sodium lauryl sulphate 5% (in water)): 10 mg/mL
Kallikrein inhibition compared to Day 1 predose (plasma kallikrein; beginning and end of the dosing interval on Day 7, two highest dose cohorts (400, 800 mg q8h), FIG. 11): 30-40%
change of plasma kallikrein activity in comparison to placebo (plasma kallikrein; single doses of 50-250 mg): modest but real changes
geometric mean Cmax, soft gelatin capsules as compared to hard gelatin capsules ([5]; 400 mg single dose, fasting): approximately 80%
bioavailability ([5]; formulated in a soft gelatin capsule): good bioavailability
